Entries after “also recorded” stand apart in the source; their conditions may differ.
System: advanced NSCLC patients with ALK or ROS1 rearrangement
Test: Phase 1 dose-expansion phase: antitumor activity (RECIST 1.1, investigators)
Assay type: in vivo, human
Conditions: for objective response rate / intracranial objective response rate: Total; for intracranial objective response rate: Baseline measurable CNS metastasis
Text: Patients continued treatment until documented disease progression, unacceptable toxicity, withdrawal of consent, the start of a new anticancer treatment, death, loss of follow-up, or end of the study (whichever occurred first). Patients were permitted to continue treatment after progression if they were still experiencing clinical benefit, at the discretion of the investigator. Patients performed imaging evaluation at baseline, with computed tomography or magnetic resonance imaging of the chest, abdomen, pelvis, and brain. In the dose-escalation phase, the first efficacy evaluation was done after 3-week continuous administration of WX-0593 and every 6 weeks thereafter. […] AEs were assessed in all patients throughout this study and graded per the National Cancer Institute Common Terminology Criteria for Adverse Events version 4.03. In the dose-expansion phase, the primary endpoint was ORR assessed by investigators. Other key secondary endpoints included PFS, DCR, time to progression (TTP), DOR, intracranial response, and safety. Additionally, overall survival (OS) was assessed as a prespecified exploratory endpoint. ORR was defined as the proportion of patients who had best overall response, including CR or PR. PFS was calculated from the date of the first dose of WX-0593 to the date of documented disease progression or death (whichever occurred first). DCR was defined as the proportion of patients who had best overall response, including CR, PR, or SD, with a duration of at least 12 weeks. TTP was calculated from the date when the first dose of WX-0593 was given to first documented disease progression. […] OS was calculated from the date when the first dose of WX-0593 was administered to the date of death from any cause. Safety analysis was performed in the SS, which was comprised of all patients treated with one dose of WX-0593 and with safety data recorded. Efficacy analysis was performed in the FAS, which was defined as all patients treated with at least one dose of WX-0593. The PK analysis set included all patients treated with at least one dose of WX-0593 and with at least one evaluable PK sample. […] Descriptive statistics were carried out to summarize patients’ baseline characteristics and safety. […] All time-to-event data (PFS, TTP, DOR, and OS) and their corresponding 95% CIs were estimated by Kaplan–Meier methods. PK parameter analyses were done with Phoenix WinNonlin version 8.0. All other statistical analyses were conducted using SAS version 9.4.

[1] = ROS1-positive patients, 120 mg (n=3)
[2] = ROS1-positive patients, 180 mg (n=6)
[3] = ROS1-positive patients, total (n=9)
[4] = baseline measurable or non-measurable brain metastasis
[5] = baseline measurable or non-measurable brain metastasis (n = 58)
[6] = both crizotinib and other ALK TKIs
[7] = crizotinib as the only ALK TKI treatment

COc1cc(N2CCC3(CCN(C)CC3)CC2)ccc1Nc1ncc(Cl)c(Nc2ccccc2P(C)(C)=O)n1 [WX-0593]
DOR, median (95% CI) (ROS1-positive patients, 120 mg): NR (NR, NR)
PFS, median (95% CI) (ROS1-positive patients, 120 mg): 2.76 (1.35, 2.76) mo
TTP, median (95% CI) (ROS1-positive patients, 120 mg): 2.76 (1.35, 2.76) mo
DCR (95% CI) [1]: 66.7% (9.4%, 99.2%)
ORR (95% CI) [1]: 0 (0%, 70.8%)
PFS, number of events (%) [1]: 3 (100%)
TTP (mo), n (%) [1]: 3 (100%)
DOR, median (95% CI) (ROS1-positive patients, 180 mg): NR (NR, NR)
PFS, median (95% CI) (ROS1-positive patients, 180 mg): NR (1.35, NR)
TTP, median (95% CI) (ROS1-positive patients, 180 mg): NR (1.35, NR)
DCR (95% CI) [2]: 66.7% (22.3%, 95.7%)
ORR (95% CI) [2]: 66.7% (22.3%, 95.7%)
PFS, number of events (%) [2]: 2 (33.3%)
TTP (mo), n (%) [2]: 2 (33.3%)
DOR, median (95% CI) (ROS1-positive patients, total): NR (NR, NR)
PFS, median (95% CI) (ROS1-positive patients, total): 2.76 (1.35, NR) mo
TTP, median (95% CI) (ROS1-positive patients, total): 2.76 (1.35, NR) mo
ORR (95% CI) [3]: 44.4%
PFS, number of events (%) [3]: 5 (55.6%)
TTP (mo), n (%) [3]: 5 (55.6%)
ORR (ROS1-rearranged, crizotinib naive): 80.0%
median PFS (ROS1 rearrangement, crizotinib-naive (n = 5)): not reached
objective response rate (ALK-rearranged patients): 58.2% (53/91, 47.4-68.5%)
objective response rate (ALK-rearranged patients, ALK TKI naive): 76.3% (29/38, 59.8-88.6%)
objective response rate (ALK-rearranged patients, ALK TKI naive, chemotherapy naïve): 85.0% (17/20, 62.1-96.8%)
objective response rate (ALK-rearranged patients, ALK TKI naive, received chemotherapy before): 66.7% (12/18, 41.0-86.7%)
objective response rate (ALK-rearranged patients, Crizotinib and other ALK TKIs): 40.0% (2/5, 5.3-85.3%)
objective response rate (ALK-rearranged patients, Crizotinib only): 45.7% (21/46, 30.9-61.0%)
objective response rate (ALK-rearranged patients, Other ALK TKIs): 50.0% (1/2, 1.3-98.7%)
objective response rate (Baseline CNS metastasis): 22.4% (13/58, 12.5-35.3%)
objective response rate (Baseline CNS metastasis, ALK TKI naive): 25.0% (5/20, 8.7-49.1%)
objective response rate (Baseline CNS metastasis, Crizotinib only): 21.2% (7/33, 9.0-38.9%)
objective response rate (Baseline CNS metastasis, Radiotherapy before): 10.5% (2/19, 1.3-33.1%)
objective response rate (Baseline CNS metastasis, Radiotherapy naïve): 28.2% (11/39, 15.0-44.9%)
intracranial objective response rate: 46.7% (7/15, 21.3-73.4%)
intracranial objective response rate (ALK TKI naive): 50.0% (2/4, 6.8-93.2%)
intracranial objective response rate (Crizotinib only): 50.0% (5/10, 18.7-81.3%)
intracranial objective response rate (Radiotherapy before): 28.6% (2/7, 3.7-71.0%)
objective response rate (Prior ALK TKI treatment: Crizotinib and other ALK TKI): 40.0% (2/5, 5.3-85.3%)
objective response rate (Prior ALK TKI treatment: Crizotinib only): 42.0% (21/50, 28.2-56.8%)
objective response rate (ROS1-rearranged patients): 44.4% (4/9, 13.7-78.8%)
objective response rate (ROS1-rearranged patients, Crizotinib naive): 80.0% (4/5, 28.4-99.5%)
objective response rate (ROS1-rearranged patients, Received Crizotinib before): 0 (0/4, 0-60.2%)
objective response rate (dose expansion phase, Prior ALK TKI treatment: ALK TKI naive): 76.2% (32/42, 60.5-87.9%)
DOR, median (95% CI) (all patients, 120 mg): NR (5.52, NR)
PFS, median (95% CI) (all patients, 120 mg): NR (6.83, NR)
TTP, median (95% CI) (all patients, 120 mg): NR (6.87, NR)
DCR (95% CI) (all patients, 120 mg (n=50)): 82.0% (68.6%, 91.4%)
PFS, number of events (%) (all patients, 120 mg (n=50)): 15 (30.0%)
DOR, median (95% CI) (all patients, 180 mg): NR (5.49, NR)
PFS, median (95% CI) (all patients, 180 mg): NR (NR, NR)
TTP, median (95% CI) (all patients, 180 mg): NR (NR, NR)
DCR (95% CI) (all patients, 180 mg (n=49)): 85.7% (72.8%, 94.1%)
PFS, number of events (%) (all patients, 180 mg (n=49)): 10 (20.4%)
DOR, median (95% CI) (all patients, total): not reached (NR) (95% CI 5.52 months to NR); also recorded: NR (5.65, NR)
PFS, median (95% CI) (all patients, total): not reached (95% CI 6.93 months to NR); also recorded: NR (6.93, NR)
TTP, median (95% CI) (all patients, total): NR (6.93, NR)
intracranial ORR (baseline measurable CNS metastasis, radiotherapy before): 28.6%
intracranial ORR (baseline measurable CNS metastasis, radiotherapy naive): 62.5%
intracranial ORR (baseline measurable brain metastasis): 46.7%
intracranial ORR (baseline measurable brain metastasis, ALK TKI naive): 50%
intracranial ORR (baseline measurable brain metastasis, crizotinib before): 50%
intracranial ORR [4]: 22.4%
median PFS [4]: not reached (95% CI 6.90 months to NR)
patients with intracranial PR [5]: 7
patients with intracranial complete remission (CR) [5]: 6
DCR [6]: 100%
ORR [6]: 40.0%
median PFS [6]: not reached
DCR [7]: 76.0%
ORR [7]: 42.0%
median PFS (previously only crizotinib): 6.83 months

From publication PMC8795197, “Safety and activity of WX-0593 (Iruplinalkib) in patients with ALK- or ROS1-rearranged advanced non-small cell lung cancer: a phase 1 dose-escalation and dose-expansion trial” (Signal Transduction and Targeted Therapy, 2022)
